Measurements as given in patent US20240067660A1, “MACROCYCLIC SPIROCYCLE DERIVATIVES AS MCL-1 INHIBITORS” (Janssen Pharmaceutica NV, priority 2019, published 2024).
Where two headings read alike, the source gives them in different places.

Legend:
[1] = system: MOLP8 cells; experiment: MOLP8 CellEvent Caspase-3/7 Green IncuCyte live-cell apoptosis assay; format: cell-based, human
Procedure: (§1) MCL-1 is a regulator of apoptosis and is highly over-expressed in tumor cells that escape cell death. The assay evaluates the cellular potency of small-molecule compounds targeting regulators of the apoptosis pathway, primarily MCL-1, Bfl-1, Bcl-2, and other proteins of the Bcl-2 family. Protein-protein inhibitors disrupting the interaction of anti-apoptotic regulators with BH3-domain proteins initiate apoptosis.
Activation of the apoptotic pathway was measured using the CellEvent™ Caspase-3/7 Green ReadyProbes™ Reagent (Thermo Fisher C10423, C10723). This assay produces a green fluorescent stain in cells that enter the apoptosis pathway. CellEvent® Caspase-3/7 Green reagent is a four amino acid peptide (DEVD) conjugated to a nucleic acid-binding dye that is non-fluorescent when not bound to DNA. The CellEvent® Caspase-3/7 Green reagent is intrinsically non-fluorescent, as the DEVD peptide inhibits binding of the dye to DNA. Upon activation of caspase-3/7 in apoptotic cells, the DEVD peptide is cleaved and the free dye can bind DNA, generating a bright green fluorescence. The activation of Caspase-3 and Caspase-7 is downstream of inhibition of MCL-1 or other apoptosis inhibiting proteins in cell lines that are dependent on them.
The live-cell readout on the IncuCyte permits tracking over time of the Caspase activation. […] The IncuCyte readout also allows one to normalize for cell number, as the suspension cells are hard to distribute evenly.
Signals were measured every 2 h for a duration of 22 h. The ratio of the Caspase mask to the Confluence mask, per image, as raw data, was calculated and the kinetic trace for every well was exported to Genedata Screener for analysis.
In Genedata Screener values for 6 h, 12 h, and 22 h from the kinetic traces were extracted. The values were normalized against negative controls (untreated cells). A standard dose-response analysis was performed on the normalized data.
The following data was reported at each of the following three aforementioned time points: (a) The dose-response curve, (b) The qAC50 and qAC50 Mode, and (c) Max Activity.
Cells were maintained in culture medium containing 10% Heat Inactivated (HI) FBS, 2 mM L-Glutamine and 50 μg/mL Gentamycin phenol red free RPMI-1640. Cells were split at 0.4 million/mL twice a week.
On Day 1, plates containing individual wells with test compounds at 10 mM concentration, 150 nL per well. The final concentrations range from […] compound (and no compound control) and compounds were thawed at room temperature for 1 hour. 25 μl of prewarmed medium was added into each well by multidrop (column 1, 3-22, 24), followed by addition of DMSO control (0.6% DMSO) in column 2. The plate was sealed using Breathe-Easy® sealing membrane and shaken for 30 min at room temperature to dissolve the test compound(s) in medium. The plate was then kept in the incubator for 1 hour at 37° C., 5% CO2.
MOLP8 cells in medium at […] (20000/50 μl final in assay) were prepared with CellEvent™ Caspase-3/7 Green Detection Reagent at 4 μM (2 μM final in assay). Once prepared, the cells were added to the test compound plate in an amount of 20000 and the plate was immediately placed in the IncuCyte and imaging started using following settings: 10× objective, 2 s exposure time in green channel, interval of 2 h, acquisition stopped after 22 h.
For analysis in IncuCyte, a Basic Analysis protocol was defined to calculate the “confluence” and “caspase” areas from the “Phase” and “green” images, respectively, as follows: (a) Confluence: Segmentation Adjustment 1, Hole Fill 0, Adjust Size −2, No filters (b) Caspase: Top-Hat segmentation, Radius 10, Threshold 0.3 GCU, Edge Split On with sensitivity 0, Hole Fill 0, Adjust Size 1, and filter on a minimum Area of 20 μm^2. The analyzer is trained on a sufficient number of positive and negative control wells, as well as compound treated wells, verifying that the “confluence” layer detects both live and dead (condensed) cells. […]

[2] = system: MOLP-8 human multiple myeloma cell line; experiment: Caspase-Glo 3/7 assay in MOLP-8 cells; format: cell-based; conditions: Caspase-Glo 3/7, 2 hours incubation, averaged over all runs on all batches, read-out: MOLP8 AC50
Source text: as §1
The Caspase-Glo® 3/7 Assay is a luminescent assay that measures caspase-3 and -7 activities in purified enzyme preparations or cultures of adherent or suspension cells. The assay provides a proluminescent caspase-3/7 substrate, which contains the tetrapeptide sequence DEVD. This substrate is cleaved to release aminoluciferin, a substrate of luciferase used in the production of light. Addition of the single Caspase-Glo® 3/7 Reagent in an “add-mix-measure” format results in cell lysis, followed by caspase cleavage of the substrate and generation of a “glow-type” luminescent signal.
This assay uses the MOLP-8 human multiple myeloma cell line, which is sensitive to MCL-1 inhibition.
Cell cultures were maintained between 0.2 and 2.0×10^6 cells/mL. The cells were harvested by collection in 50 mL conical tubes. The cells were then pelleted at 500 g for 5 mins before removing supernatant and resuspension in fresh pre-warmed culture medium. The cells were counted and diluted as needed.
The assay reagent was prepared by transferring the buffer solution to the substrate vial and mixing. The solution may be stored for up to 1 week at 4° C. with negligible loss of signal.
Compounds were delivered in assay-ready plates (Proxiplate) and stored at −20° C. Assays always include 1 reference compound plate containing reference compounds. The plates were spotted with 40 nL of compounds (0.5% DMSO final in cells; serial dilution; 30 μM highest conc. 1/3 dilution, 10 doses, duplicates). The compounds were used at room temperature and 4 μL of pre-warmed media was added to all wells except column 2 and 23. The negative control was prepared by adding 1% DMSO in media. The positive control was prepared by adding the appropriate positive control compound in final concentration of 60 μM in media. The plate was prepared by adding 4 μL negative control to column 23, 4 μL positive control to column 2 and 4 μL cell suspension to all wells in the plate. The plate with cells was then incubated at 37° C. for 2 hours. The assay signal reagent is the Caspase-Glo solution described above, and 8 μL was added to all wells. The plates were then sealed and measured after 30 minutes.
The activity of a test compound was calculated as percent change in apoptosis induction as follows: […]

[3] = molecular target: Myeloid Cell Leukemia 1(Mcl-1) (Homo sapiens (Human), UniProt Q07820); experiment: Terbium labeled Mcl-1 HTRF binding assay with Cy5-labeled BIM BH3 peptide
Sequence of Myeloid Cell Leukemia 1(Mcl-1) (Q07820 whole entry): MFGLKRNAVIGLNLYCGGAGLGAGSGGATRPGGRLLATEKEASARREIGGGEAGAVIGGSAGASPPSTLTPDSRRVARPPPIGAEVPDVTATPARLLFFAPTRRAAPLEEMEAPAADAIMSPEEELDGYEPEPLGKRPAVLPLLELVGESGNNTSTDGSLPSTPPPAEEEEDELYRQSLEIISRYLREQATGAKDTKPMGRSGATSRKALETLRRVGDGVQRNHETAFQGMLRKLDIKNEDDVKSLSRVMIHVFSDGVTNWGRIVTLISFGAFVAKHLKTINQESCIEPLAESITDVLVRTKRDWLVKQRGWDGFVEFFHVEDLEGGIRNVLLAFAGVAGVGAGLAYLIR
Procedure: Terbium labeled Myeloid Cell Leukemia 1(Mcl-1) homogeneous time-resolved fluorescence (HTRF) binding assay utilizing the BIM BH3 peptide (H2N-(C/Cy5Mal) WIAQELRRIGDEFN-OH) as the binding partner for Mcl-1.
This assay evaluated inhibition of the BH3 domain: Mcl-1 interaction by measuring the displacement of Cy5-labeled BIM BH3 peptide (H2N—(C/Cy5Mal) WIAQELRRIGDEFN-OH) in the HTRF assay format.
The following assay and stock buffers were prepared for use in the assay: (a) Stock buffer: 10 mM Tris-HCl, pH=7.5+150 mM NaCl, filtered, sterilized, and stored at 4° C.; and (b) 1× assay buffer, where the following ingredients were added fresh to stock buffer: 2 mM dithiothreitol (DTT), 0.0025% Tween-20, 0.1 mg/mL bovine serum albumin (BSA). The 1×Tb-Mcl-1+Cy5 Bim peptide solution was prepared by diluting the protein stock solution using the 1× assay buffer (b) to 25 pM Tb-Mcl-1 and 8 nM Cy5 Bim peptide.
Using the Acoustic ECHO, 100 nL of 100× test compound(s) were dispensed into individual wells of a white 384-well Perkin Elmer Proxiplate, for a final compound concentration of lx and final DMSO concentration of 1%. Inhibitor control and neutral control (NC, 100 nL of 100% DMSO) were stamped into columns 23 and 24 of assay plate. Into each well of the plate was then dispensed 10 μL of the 1×Tb-Mcl-1+Cy5 Bim peptide solution. The plate was centrifuged with a cover plate at 1000 rpm for 1 minute, then incubated for 60 minutes at room temperature with plates covered.
The TR-FRET signal was read on an BMG PHERAStar FSX MicroPlate Reader at room temperature using the HTRF optic module (HTRF: excitation: 337 nm, light source: laser, emission A: 665 nm, emission B: 620 nm, integration start: 60 μs, integration time: […]).
The BMG PHERAStar FSX MicroPlate Reader was used to measure fluorescence intensity at two emission wavelengths—665 nm and 620 nm—and report relative fluorescence units (RFU) for both emissions, as well as a ratio of the emissions (665 nm/620 nm)*10,000. The RFU values were normalized to percent inhibition as follows:
% inhibition=((NC−IC)−(compound−IC))/(NC−IC))*100
where IC (inhibitor control, low signal)=mean signal of 1×Tb-MCl-1+Cy5 Bim peptide+inhibitor control or 100% inhibition of Mcl-1; NC (neutral control, high signal)=mean signal 1×Tb-MCl-1+Cy5 Bim peptide with DMSO only or 0% inhibition An 11-point dose response curve was generated to determine IC50 values (using GenData) based on the following equation:
Y=Bottom+(Top−Bottom)/(1+10^((IogIC50−X)*HillSlope))
where Y=% inhibition in the presence of X inhibitor concentration; Top=100% inhibition derived from the IC (mean signal of Mcl-1+inhibitor control); Bottom=0% inhibition derived from the NC (mean signal of Mcl-1+DMSO); Hillslope=Hill coefficient; and IC50=concentration of compound with 50% inhibition in relation to top/neutral control (NC).
In this assay [L]=8 nM and Kd=10 nM

[4] = 6 h, read-out: MOLP8 Caspase 3/7 AC50 at 6 h
[5] = 12 h, read-out: MOLP8 Caspase 3/7 AC50 at 12 h
[6] = 22 h, read-out: MOLP8 Caspase 3/7 AC50 at 22 h
[7] = Homo sapiens, MOLP-8, 6 h, 6 h, read-out: MOLP8 Caspase 3/7 AC50 at 6 h
[8] = Homo sapiens, MOLP-8, 12 h, 12 h, read-out: MOLP8 Caspase 3/7 AC50 at 12 h
[9] = Homo sapiens, MOLP-8, 22 h, 22 h, read-out: MOLP8 Caspase 3/7 AC50 at 22 h
[10] = first table, [L]=8 nM, Kd=10 nM, before recalibration of the equipment

Row | Compound | AC50 [1, 7] [µM] | AC50 [1, 8] [µM] | AC50 [1, 9] [µM] | also measured
1 | C[C@@H]1[C@@H](C)C/C=C/CN2CC[C@H]2CN2CC3(CCOc4cc(Cl)ccc43)COc3ccc(cc32)C(=O)NS1(=O)=O (single isomer, unassigned) [Compound 6] |  |  |  | AC50 [1, 4]: > 30 µM; AC50 [1, 5]: > 30 µM; AC50 [1, 6]: > 30 µM
2 | COCC1(CO)/C(F)=C/C[C@H](C)[C@@H](C)S(=O)(=O)NC(=O)c2ccc3c(c2)N(C[C@@H]2CCN21)C[C@@]1(CCCc2cc(Cl)ccc21)CO3 (single isomer, unassigned) [Compound 38] |  |  |  | AC50 [2]: 0.152 µM; Ki ([3]; obtained after recalibration of the equipment, averaged values over several runs): 0.00015 µM
3 | C[C@@H]1[C@@H](C)C/C=C(\F)[C@H](CN2CCOCC2)N2CC[C@H]2CN2C[C@@]3(CCCc4cc(Cl)ccc43)COc3ccc(cc32)C(=O)NS1(=O)=O [Compound 33] | 0.33 | 0.34 | 0.56 | 
4 | C[C@@H]1[C@@H](C)C/C=C(\F)CN2CC[C@H]2CN2C[C@@]3(CCCc4cc(Cl)ccc43)COc3ccc(cc32)C(=O)NS1(=O)=O [Compound 2] | ~0.97 | ~1.05 | 1.2 | AC50 ([2]; Homo sapiens, MOLP-8, 2 h): 0.693 µM
5 | C[C@@H]1[C@@H](C)C/C=C/CN2CC[C@H]2CN2CC3(CCOc4cc(Cl)ccc43)COc3ccc(cc32)C(=O)NS1(=O)=O (single isomer, unassigned) [Compound 5] |  |  |  | AC50 [1, 4]: 6.31 µM; AC50 [1, 5]: 6.6 µM; AC50 [1, 6]: 5.75 µM; AC50 ([2]; Homo sapiens, MOLP-8, 2 h): 3.74 µM
6 | C[C@@H]1[C@@H](C)C/C=C(\F)[C@H](CN2CCN3CCN(C)C[C@@H]3C2)N2CC[C@H]2CN2C[C@@]3(CCCc4cc(Cl)ccc43)COc3ccc(cc32)C(=O)NS1(=O)=O [Compound 32] | 1.1 | 0.96 | 0.96 | 
7 | COC[C@H]1/C(F)=C/C[C@H](C)[C@@H](C)S(=O)(=O)NC(=O)c2ccc3c(c2)N(C[C@@H]2CCCN21)C[C@@]1(CCCc2cc(Cl)ccc21)CO3 [Compound 20] | 0.81 | 0.7 | 0.61 | Ki [3, 10]: 0.00091 µM
8 | C[C@@H]1[C@@H](C)C/C=C(/F)CN2CC[C@H]2CN2C[C@@]3(CCCc4cc(Cl)ccc43)COc3ccc(cc32)C(=O)NS1(=O)=O [Compound 1] | 7.76 | ~10.5 | 7.94 | 
9 | C[C@@H]1[C@@H](C)C/C=C/CN2CC[C@H]2CN2C[C@@]3(CCCc4cc(Cl)ccc43)COc3ccc(cc32)C(=O)NS1(=O)=O [Compound 3] | 2.4 | 2.69 | 3.09 | Ki [3, 10]: 0.00314 µM
10 | COCCOCCOC[C@H]1/C(F)=C/C[C@H](C)[C@@H](C)S(=O)(=O)NC(=O)c2ccc3c(c2)N(C[C@@H]2CCN21)C[C@@]1(CCCc2cc(Cl)ccc21)CO3 [Compound 14] | 0.3 | 0.35 | 0.37 | Ki [3, 10]: 0.00034 µM
11 | C[C@@H]1[C@@H](C)C/C=C(\F)[C@H](COCCN2CCOCC2)N2CC[C@H]2CN2C[C@@]3(CCCc4cc(Cl)ccc43)COc3ccc(cc32)C(=O)NS1(=O)=O [Compound 30] | 0.63 | 0.56 | 0.62 | 
12 | COCCOCC1(COCCOC)/C(F)=C/C[C@H](C)[C@@H](C)S(=O)(=O)NC(=O)c2ccc3c(c2)N(C[C@@H]2CCN21)C[C@@]1(CCCc2cc(Cl)ccc21)CO3 [Compound 41] |  |  |  | AC50 ([2]; Homo sapiens, MOLP-8, 2 h): 0.152 µM
